In the oligonucleotide strings, read from the 5' end, every base follows the letter of its sugar. An asterisk marks phosphorothioate; unmarked linkages are phosphodiester. Other units and linkages are bracketed, terminal groups are in braces. A string of capitals states the bases alone. {NAG37} = tridentate N-acetyl-galactosamine targeting ligand, structure (NAG37)s; [invAb] = inverted abasic unit; m = 2'-O-methyl; f = 2'-fluoro

For data set [1], the system named is ANGPTL3 gene. In words: Example 2: serum total cholesterol in mice. Type of data set: in vivo. On the procedure: (§1) To assess the in vivo activity of ANGPTL3 RNAi agents that are designed to target different positions on the ANGPTL3 gene, six- to eight-week-old female C57bl/6 mice were used. Pre-dose serum samples were taken at day −1 after a four hour fast. At day 1, each mouse was given a single subcutaneous administration of 200 μl containing either 3 mg/kg (mpk) of an ANGPTL3 RNAi agent in D5W (dextrose in 5% water), or control (D5W) with no RNAi agent, according to the dosing groups recited in Table 7.
(§2) Each of the RNAi agents included a modified sequence and an N-acetyl-galactosamine-containing targeting ligand conjugated to the 5′ terminal end of the sense strand. (See Tables 3, 4, and 5 for modified sequences and targeting ligand structures). The injections were performed between the skin and muscle (i.e. subcutaneous injections) into the loose skin over the neck and shoulder area. Three (3) mice in each group were tested (n=3). Serum was collected on days 8, […], 22, 29, and day 36 (for Groups 1 and 5-11 only). Mice were fasted for four hours prior to each collection. ANGPTL3 protein levels in serum were measured by ELISA assay (R&D Systems), according to the manufacturer's recommendations. Triglycerides, high-density lipoprotein (HDL), and total cholesterol in serum were measured on a Cobas® Integra 400 (Roche Diagnostics), according to the manufacturer's recommendations.
(§3) The ANGPTL3 protein levels, triglyceride levels, HDL levels, and total cholesterol levels for each animal were normalized. For normalization, the level of ANGPTL3 protein, triglyceride, HDL, and total cholesterol, respectively, for each animal at a time point, was divided by the pre-treatment level of expression in that animal (in this case at day −1) to determine the ratio of expression “normalized to pre-treatment.” Expression at a specific time point was then normalized to the D5W control group by dividing the “normalized to pre-treatment” ratio for an individual animal by the mean “normalized to pretreatment” ratio of all mice in the D5W control group.

Data set [2] has as its system ANGPTL3 gene. Description: Example 2: serum HDL in mice. The format is in vivo. On the procedure:
as §1, §2, §3

The subject of data set [3] is ANGPTL3 gene. In words: Example 8: serum LDL in cynomolgus monkeys. Type of data set: in vivo, cynomolgus macaque (Macaca fascicularis). The settings on record: 3.0 mg/kg single SC injection day 1, cynos, n=2. On the procedure:
Additional ANGPTL3 RNAi agents were evaluated in cynomolgus monkeys. On day 1, cynomolgus macaque (Macaca fascicularis) primates (also referred to herein as “cynos”) were administered a single subcutaneous injection of 0.3 mL/kg (approximately 1-2 mL volume, depending on animal mass) containing 3.0 mg/kg of one of ANGPTL3 RNAi agent AD05577, AD05307, AD05488, AD05654, or AD05659, each formulated in saline.
Two (2) cynos in each group were tested (n=2). Blood samples were drawn and serum samples were analyzed on days −8 (pre-dose), 1 (pre-dose), 8, 15, 22, 29, and 36. Cynos were fasted overnight prior to each collection. ANGPTL3 protein levels in serum were measured by ELISA assay (R&D Systems), according to the manufacturer's recommendations. Triglycerides, total cholesterol, high-density lipoprotein (HDL), and low-density lipoprotein (LDL) in serum were measured on a Cobas® Integra 400 (Roche Diagnostics), according to the manufacturer's recommendations.
The ANGPTL3 protein levels, triglyceride levels, total cholesterol levels, HDL levels, and LDL levels for each animal were normalized. For normalization, the level of ANGPTL3 protein, triglyceride, HDL, and total cholesterol, respectively, for each animal at a time point, was divided by the average pre-treatment level of expression in that animal (in this case at days −8, and 1 (pre-dose)) to determine the ratio of expression “normalized to pre-treatment.”

Setting [4] is: Day 8, 3.0 mg/kg single subcutaneous dose on day 1, female C57bl/6 mice.
[5] abbreviates: Day 13, 3.0 mg/kg single subcutaneous dose on day 1, female C57bl/6 mice.
[6] abbreviates: Day 22, 3.0 mg/kg single subcutaneous dose on day 1, female C57bl/6 mice.
Setting [7] is: Day 29, 3.0 mg/kg single subcutaneous dose on day 1, female C57bl/6 mice.
The mark [8] stands for this setting: Day 36, 3.0 mg/kg single subcutaneous dose on day 1, female C57bl/6 mice.

Regarding “AD05307: RNAi agent duplex: antisense AM07001-AS, sense AM07000-SS (chain 1 mU*fU*mU*fGmAfAmUfUmAfAmUfGmUfCmCfAmUfGmGmG*mC; chain 2 {NAG37}*[invAb]*mGmCmCmCmAmUmGmGfAfCfAmUmUmAmAmUmUmCmAmAmA*[invAb])”, the “Avg Total Chol (Average Total Cholestrol Normalized to Pre-Treatment and Control)” value in the data set with ANGPTL3 gene [1] (setting [4]) is 0.649; with ANGPTL3 gene [1] (setting [5]), 0.570; in the data set with ANGPTL3 gene [1] (setting [6]), 0.628; in the data set on ANGPTL3 gene [1] (setting [7]) it was 0.753; with ANGPTL3 gene [1] (setting [8]) it was 0.755. Further, the “Avg HDL (Average HDL Normalized to Pre-Treatment and Control)” value in the data set on ANGPTL3 gene [2] (setting [4]) was determined as 0.633; with ANGPTL3 gene [2] (setting [5]) it was 0.524; with ANGPTL3 gene [2] (setting [6]), 0.588; in the data set on ANGPTL3 gene [2] (setting [7]), 0.724; with ANGPTL3 gene [2] (setting [8]) it was 0.702. In addition, the “Average LDL Normalized to Pre-Treatment” value in the data set on ANGPTL3 gene [3] (Day 8) worked out at 1.008; in the data set with ANGPTL3 gene [3] (Day 15), 1.102; in the data set with ANGPTL3 gene [3] (Day 22), 0.971; in the data set on ANGPTL3 gene [3] (Day 29) it was 1.106; with ANGPTL3 gene [3] (Day 36), 0.894.

These data come from patent US12729377B2, “RNAi agents and compositions for inhibiting expression of angiopoietin-like 3 (ANGPTL3), and methods of use” (Arrowhead Pharmaceuticals, Inc., priority 2017, dated 2026).
